Patent US20210348120A1, “Polarised Three-Dimensional Cellular Aggregates” (CAMBRIDGE ENTERPRISE LIMITED, priority 2018, published 2021)

Tested on: gastruloid cardiac portion
Assay: Calcium imaging of the gastruloid cardiac portion
Type: cell-based, mouse
Conditions: 168 h gastruloids, 1 μM, light sheet imaging with Cal-520
Description: To image calcium fluxes, gastruloids were incubated for 1 h with 8 μM Cal-520 (AAT Bioquest) at 37° C., 5% CO2. Gastruloids were then transferred to fresh medium before imaging. Imaging was performed with a Light sheet Z1 microscope (Zeiss) equipped with an environmental chamber to maintain gastruloids at 37° C. and 5% CO2. For imaging, gastruloids were embedded in 1% low melt agarose and the chamber was filled with culture medium. Nifidepine (Sigma Aldrich, 10 μM) and Isoproterenol (Isoprenaline hydrochloride, Sigma 15627, 1 μM) were added with a syringe directly to the imaging chamber during acquisition. The analysis of calcium spikes was performed with the Fiji Stacks-plot Z-Axis profile plugin. The baseline intensity was normalized to the minimum value over 10 sec.

CC(C)NCC(O)c1ccc(O)c(O)c1 (stereo not shown) [isoproterenol, Isoproterenol]
calcium spiking frequency: increase in spiking frequency
